Test results reported in publication PMC4573928 (Cancer chemotherapy and pharmacology, 2015).
Several values for one entry are separate records, joined by “and”; a condition that tells them apart may be missing. Equal values may be shown once. Entries after “also recorded” stand apart in the source; their conditions may differ. Each block holds one molecule with its values, some of them ahead of it.

Tests used:
[1] = cited from earlier work
[2] = Plasma pharmacokinetics of FdCyd, metabolites and THU in cynomolgus monkeys; conditions: for Detection of metabolites in plasma: four animals; for Concentrations, fold lower than those of parent FdCyd: PO FdCyd 1 h after 500 mg/kg PO THU; for Detection in plasma: PO FdCyd at 1 and 10 mg/kg 1 h after PO THU; for AUC(0-inf): AUC0-inf; for AUC(0-t): AUC0-t
[3] = Human pilot pharmacokinetic study of IV and PO FdCyd and THU; conditions: humans; after PO dosing; FC detected in 4 out of the 7 patients
cynomolgus monkeys = conditions: THU (500 mg/kg) and FdCyd (0.1, 1.0 or 10.0 mg/kg) PO QDx3 every week, 3 or 4 repeat 1 week cycles
[4] = monkeys, FdCyd 0.1 mg/kg PO 1 h after 500 mg/kg THU PO
[5] = both, cynomolgus monkey, plasma, iv, analyte FdCyd, FdCyd 8 mg/kg 3 h IV infusion with THU 30 mg/kg IV, N=2, mean (±SD)
[6] = both, cynomolgus monkey, plasma, po, 10 mg/kg, analyte FdCyd, FdCyd 10 mg/kg PO 1 h after THU 150 mg/kg PO, N=4, mean (±SD)
[7] = both, cynomolgus monkey, plasma, po, 10 mg/kg, analyte FdCyd, FdCyd 10 mg/kg PO 1 h after THU 500 mg/kg PO, N=4, mean (±SD)

SMILES: Nc1ncn([C@@H]2O[C@H](CO)[C@@H](O)[C@H]2O)c(=O)n1 [5-aza-cytidine]
- Chemical stability [1]: unstable

SMILES: Nc1nc(=O)[nH]cc1F [FC, 5-fluorocytosine]
- FC in plasma ([2]; monkeys, 10 mg/kg FdCyd PO after 150 mg/kg THU PO): no FC was detected
- FC in plasma ([2]; monkeys, 10 mg/kg FdCyd PO after 150 mg/kg THU PO, listed as 5-FC): not after 150 mg/kg THU
- FC in plasma ([2]; monkeys, 10 mg/kg FdCyd PO with 500 mg/kg THU PO): Low levels of FC were also detected
- FC in plasma ([2]; monkeys, 10 mg/kg FdCyd PO with 500 mg/kg THU PO, listed as 5-FC): observed
- Detection of metabolites in plasma [2, 4]: No FU or FC was detected
- Overall maximum plasma concentration of FC observed [3]: 36.9 ng/mL

SMILES: O=c1[nH]c(=O)n([C@@H]2O[C@H](CO)[C@@H](O)[C@H]2O)cc1F [FUrd, 5-fluorouridine]
- FUrd peaks in plasma samples ([2]; any of the samples, detectable down to approximately 30 ng/mL): no FUrd peaks were detected

SMILES: Nc1nc(=O)n([C@H]2C[C@H](O)[C@@H](CO)O2)cc1F [FdCyd, 5-fluoro-2’-deoxycytidine]
- Mortality and dose-limiting toxicity (cynomolgus monkeys): did not result in any mortality or any signs of dose-limiting toxicity
- AUC(0-inf) [2, 5]: 17800 ng·h/mL
- AUC(0-t) [2, 5]: 17800 ng·h/mL
- Cmax [2, 5]: 5690 ng/mL
- Tmax ([2]; both, cynomolgus monkey, plasma, iv, Tmax, analyte FdCyd, FdCyd 8 mg/kg 3 h IV infusion with THU 30 mg/kg IV, N=2, mean (±SD)): 1.75 h
- half-life ([2]; both, cynomolgus monkey, plasma, iv, T½, analyte FdCyd, FdCyd 8 mg/kg 3 h IV infusion with THU 30 mg/kg IV, N=2, mean (±SD)): 0.87 h
- Tmax ([2]; both, cynomolgus monkey, plasma, po, 0.1 mg/kg, Tmax for FdCyd (mean), monkeys, FdCyd 0.1 mg/kg PO 1 h after 500 mg/kg THU PO): 0.25 h
- Tmax ([2]; both, cynomolgus monkey, plasma, po, 1 mg/kg, Tmax for FdCyd (mean), monkeys, FdCyd 1 mg/kg PO 1 h after 500 mg/kg THU PO): 0.5 h
- AUC(0-inf) [2, 6]: 1930 ng·h/mL
- AUC(0-inf) [2, 7]: 5400 ng·h/mL
- AUC(0-t) [2, 6]: 1870 ng·h/mL
- AUC(0-t) [2, 7]: 5280 ng·h/mL
- CL/F [2, 6]: 126 mL/min/kg
- CL/F [2, 7]: 53 mL/min/kg
- Cmax [2, 6]: 1180 ng/mL
- Cmax [2, 7]: 2030 ng/mL
- bioavailability ([2]; both, cynomolgus monkey, plasma, po, 10 mg/kg, F (PO bioavailability), analyte FdCyd, FdCyd 10 mg/kg PO 1 h after THU 150 mg/kg PO, relative to 4, 8, and 16 mg/kg FdCyd IV with 30 mg/kg THU): 8.9%
- bioavailability ([2]; both, cynomolgus monkey, plasma, po, 10 mg/kg, F (PO bioavailability), analyte FdCyd, FdCyd 10 mg/kg PO 1 h after THU 500 mg/kg PO, relative to 4, 8, and 16 mg/kg FdCyd IV with 30 mg/kg THU): 25%
- Tmax ([2]; both, cynomolgus monkey, plasma, po, 10 mg/kg, Tmax for FdCyd (mean), monkeys, FdCyd 10 mg/kg PO 1 h after 500 mg/kg THU PO): 1.38 h
- Tmax ([2]; both, cynomolgus monkey, plasma, po, 10 mg/kg, Tmax, analyte FdCyd, FdCyd 10 mg/kg PO 1 h after THU 150 mg/kg PO, N=4, mean (±SD)): 1.25 h
- Tmax ([2]; both, cynomolgus monkey, plasma, po, 10 mg/kg, Tmax, analyte FdCyd, FdCyd 10 mg/kg PO 1 h after THU 500 mg/kg PO, N=4, mean (±SD)): 1.38 h
- half-life ([2]; both, cynomolgus monkey, plasma, po, 10 mg/kg, T½, analyte FdCyd, FdCyd 10 mg/kg PO 1 h after THU 150 mg/kg PO, N=4, mean (±SD)): 1.23 h
- half-life ([2]; both, cynomolgus monkey, plasma, po, 10 mg/kg, T½, analyte FdCyd, FdCyd 10 mg/kg PO 1 h after THU 500 mg/kg PO, N=4, mean (±SD)): 0.63 h
- half-life ([2]; both, cynomolgus monkey, plasma, po, Plasma terminal half-life of FdCyd, monkeys, range over groups receiving 0.1, 1.0, and 10 mg/kg PO FdCyd 1 h after 500 mg/kg PO THU): 0.4 to 2.7 h
- clearance ([2]; both, cynomolgus, cynomolgus monkey, plasma, iv): ~15 mL/min/kg
- half-life ([2]; both, cynomolgus, cynomolgus monkey, plasma, iv, FdCyd half-life, monkeys, after IV FdCyd and THU administration, range): 0.367 to 0.933 h
- bioavailability ([2]; both, cynomolgus, cynomolgus monkey, plasma, po, FdCyd PO bioavailability after THU, monkeys, range, increased with increasing THU dose): 9 to 25%
- Plasma concentrations of FdCyd or downstream metabolites ([2]; monkeys, 10 mg/kg PO FdCyd without THU, 10 mg/kg): not detectable; also recorded: undetectable
- Detectable plasma concentrations of FdCyd (range per animal) ([2]; monkeys, FdCyd 0.1 mg/kg PO 1 h after 500 mg/kg THU PO, two of four animals): 22.6 to 117.2 ng/mL and 34.1 to 152.2 ng/mL

SMILES: Nc1ncn([C@H]2C[C@H](O)[C@@H](CO)O2)c(=O)n1 [decitabine]
- Chemical stability [1]: unstable

The next lines start with results.

- Detection of metabolites in plasma [2, 4]: No FU or FC was detected
- Concentrations, fold lower than those of parent FdCyd ([2]; monkeys): approximately 10 fold
- Detection in plasma ([2]; monkeys): detectable plasma concentrations
SMILES: O=c1[nH]cc(F)c(=O)[nH]1 [FU, 5-fluorouracil]

- Concentrations, fold lower than those of parent FdCyd ([2]; monkeys): approximately 10 fold
- Detection in plasma ([2]; monkeys): detectable plasma concentrations
SMILES: O=c1[nH]c(=O)n([C@H]2C[C@H](O)[C@@H](CO)O2)cc1F [FdUrd, 5-fluoro-2’-deoxyuridine]
- Detection of metabolites in plasma [2, 4]: three had detectable plasma concentrations of FdUrd out to 60 min
